Where two headings read alike, the source gives them in different places.
What was measured:
[1] = test system: NCI-H358 cells (K-Ras G12C); assay: Potency assay: pERK in NCI-H358 cells; format: cell-based, human; conditions: Homo sapiens, NCI-H358; H358 KRAS G12C; read-out: pERK EC50
Method in brief: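 pERK decrease read by AlphaLISA SureFire p-ERK1/2 or In-Cell Western after 4 h compound exposure at 37 °C, 5% CO2.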

[2] = target: KRAS G12D (Homo sapiens (Human), UniProt P01116+P62937, G12D); assay: Ras-Raf (BRAF RBD) disruption / FRET / MOA assay, KRAS G12D; format: biochemical; conditions: Ras-Raf disruption/FRET/MOA assay; class symbols; read-out: KRAS G12D FRET data IC50
Chain of KRAS G12D (P01116-2 other isoform, or with tags, fused parts or gaps G12D): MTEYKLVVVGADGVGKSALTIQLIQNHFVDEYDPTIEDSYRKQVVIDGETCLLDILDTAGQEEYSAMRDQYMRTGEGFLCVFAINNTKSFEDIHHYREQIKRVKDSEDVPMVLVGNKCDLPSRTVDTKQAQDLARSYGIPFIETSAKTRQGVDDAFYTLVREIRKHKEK
Chain of KRAS G12D (P62937 whole entry): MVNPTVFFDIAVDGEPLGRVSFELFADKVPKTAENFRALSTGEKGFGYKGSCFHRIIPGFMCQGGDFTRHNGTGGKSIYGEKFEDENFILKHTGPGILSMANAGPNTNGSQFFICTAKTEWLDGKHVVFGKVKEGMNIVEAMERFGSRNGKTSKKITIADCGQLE
Method in brief: (§1)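 TR-FRET read-out: a drop in ratio relative to DMSO wells marks disruption of the Ras:RAF complex, reported as IC50. Compounds (3-fold series, 10 points, top 30 μM final) incubated 3 h at 25° C before Eu-anti-His 10 nM and APC-anti-GST 50 nM, 1.5 h more.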

[3] = target: NRAS G12C (Homo sapiens (Human), UniProt P01111+P62937, G12C); assay: Ras-Raf (BRAF RBD) disruption / FRET / MOA assay, NRAS G12C; format: biochemical
Chain of NRAS G12C (P01111 whole entry G12C): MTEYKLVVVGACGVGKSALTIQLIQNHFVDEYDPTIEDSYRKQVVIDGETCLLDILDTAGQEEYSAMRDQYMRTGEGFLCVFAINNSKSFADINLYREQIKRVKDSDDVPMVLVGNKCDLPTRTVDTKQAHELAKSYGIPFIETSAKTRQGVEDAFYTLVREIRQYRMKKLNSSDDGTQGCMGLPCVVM
Chain of NRAS G12C (P62937 whole entry): as the sequence (P62937 whole entry) above
Method in brief: as §1

[4] = target: NRAS Q61R (Homo sapiens (Human), UniProt P01111+P62937, Q61R); assay: Ras-Raf (BRAF RBD) disruption / FRET / MOA assay, NRAS Q61R; format: biochemical
Chain of NRAS Q61R (P01111 whole entry Q61R): as the sequence (P01111 whole entry G12C) above, with C12G, Q61R counted along it
Chain of NRAS Q61R (P62937 whole entry): as the sequence (P62937 whole entry) above
Method in brief: (§2)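 Compounds were tested as a 10-point 3-fold dilution series from 30 μM final for their ability to drive ternary complex formation between nucleotide-loaded Ras and cyclophilin A, displacing the BRAF RBD. After 3 h at 25° C., anti-His Eu-W1024 (10 nM) and anti-GST allophycocyanin (50 nM) were added for 1.5 h. A TR-FRET ratio decrease versus DMSO gave IC50.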

[5] = target: NRAS WT (Homo sapiens (Human), UniProt P01111+P62937); assay: Ras-Raf (BRAF RBD) disruption / FRET / MOA assay, NRAS WT; format: biochemical
Chain of NRAS WT (P01111 whole entry): as the sequence (P01111 whole entry G12C) above, with C12G counted along it
Chain of NRAS WT (P62937 whole entry): as the sequence (P62937 whole entry) above
Method in brief: as §2

[6] = read-out: IC50* NRAS G12C FRET data
[7] = NRAS Q61R, Ras-Raf disruption/FRET/MOA assay, read-out: IC50* NRAS Q61R FRET data
[8] = read-out: IC50* NRAS WT FRET data

Row | SMILES | EC50 [1] [nM] | IC50 [2] [nM] | IC50 [3, 6] [nM] | IC50 [4, 7] [nM] | IC50 [5, 8] [nM] | IC50 ([3]; IC50* NRAS G12C FRET data) [nM] | IC50 [4] [nM] | IC50 ([5]; IC50* NRAS WT FRET data) [nM]
1 | C=CC(=O)N1CC[C@H](C(=O)N(C)[C@H](C(=O)N[C@H]2CC3=NC=C(O3)c3ccc4c(c3)c(c(-c3cccnc3[C@H](C)OC)n4CC)CC(C)(C)COC(=O)[C@@H]3CCCN(N3)C2=O)C(C)C)C1 (atropisomer, axis not shown) [Example A278] | < 5000 | > 10000 | 100 to 1000 | > 10000 | 1000 to 10000 |  |  | 
2 | CCn1c(-c2cccnc2[C@H](C)OC)c2c3cc(ccc31)-c1cccc(c1)C[C@H](NC(=O)[C@H](C(C)C)N(C)C(=O)[C@H]1CCN(C(=O)C#CC(C)(C)N(C)C)C1)C(=O)N1CCC[C@H](N1)C(=O)OCC(C)(C)C2 (atropisomer, axis not shown) [Example A290] | < 5000 | > 10000 | < 10 | 1000 to 10000 | 1000 to 10000 |  |  | 
3 | C=CS(=O)(=O)N1CCC2(CCN([C@H](C(=O)N[C@H]3Cc4cc(O)cc(c4)-c4ccc5c(c4)c(c(-c4cccnc4[C@H](C)OC)n5CC)CC(C)(C)COC(=O)[C@@H]4CCCN(N4)C3=O)C(C)C)C2=O)CC1 (atropisomer, axis not shown) [Example A299] | < 5000 | 1000 to 10000 | < 10 | 100 to 1000 | 10 to 100 |  |  | 
4 | CO[C@@H](C)c1ncccc1-c1c2c3cc(ccc3n1CC(F)(F)F)-c1csc(n1)C[C@H](NC(=O)[C@@H](COC1CN(C(=O)C#CC(C)(C)N(C)C)C1)C(C)C)C(=O)N1CCC[C@H](N1)C(=O)OCC(C)(C)C2 (atropisomer, axis not shown) [Example A343] | < 5000 | > 10000 | < 10 | 1000 to 10000 | 1000 to 10000 |  |  | 
5 | C=CC(=O)N1CC[C@H](C(=O)N(C)[C@H](C(=O)N[C@H]2Cc3cc(cc(C(F)F)c3)-c3ccc4c(c3)c(c(-c3cc(N5CCN(C)CC5)cnc3[C@H](C)OC)n4CC(F)(F)F)CC(C)(C)COC(=O)[C@@H]3CCCN(N3)C2=O)C(C)C)C1 (atropisomer, axis not shown) [Example A357] | < 5000 | 1000 to 10000 | 100 to 1000 | 100 to 1000 | 100 to 1000 |  |  | 
6 | CO[C@@H](C)c1ncccc1-c1c2c3cc(ccc3n1CC(F)(F)F)-c1cccc(c1)C[C@H](NC(=O)[C@@H](COC1CN(C(=O)C#CC(C)(C)N(C)C)C1)C(C)C)C(=O)N1CCC[C@H](N1)C(=O)OCC(C)(C)C2 (atropisomer, axis not shown) [Example A376] | < 5000 | > 10000 | < 10 | > 10000 | 1000 to 10000 |  |  | 
7 | C=CC(=O)N1C[C@H](C)N(C(=O)N(C)[C@H](C(=O)N[C@H]2Cc3nc(cs3)-c3ccc4c(c3)c(c(-c3cccnc3[C@H](C)OC)n4CC)CC(C)(C)COC(=O)[C@@H]3CCCN(N3)C2=O)C(C)C)C[C@@H]1C (atropisomer, axis not shown) [Example A385] | < 5000 | 100 to 1000 | 10 to 100 | 10 to 100 | 10 to 100 |  |  | 
8 | C=CC(=O)N1CCC12CN(C(=O)N(C)[C@H](C(=O)N[C@H]1Cc3nc(cs3)-c3ccc4c(c3)c(c(-c3cccnc3[C@H](C)OC)n4CC)CC(C)(C)COC(=O)[C@@H]3CCCN(N3)C1=O)C(C)C)C2 (atropisomer, axis not shown) [Example A393] | < 5000 | 1000 to 10000 | 100 to 1000 | 100 to 1000 | 100 to 1000 |  |  | 
9 | CCn1c(-c2cccnc2[C@H](C)OC)c2c3cc(ccc31)-c1cc(F)cc(c1)C[C@H](NC(=O)[C@@H](COC1CN(C(=O)C#CC(C)(C)N(C)C)C1)C(C)C)C(=O)N1CCC[C@H](N1)C(=O)OCC(C)(C)C2 (atropisomer, axis not shown) [Example A403] | < 5000 | > 10000 | 10 to 100 | > 10000 | > 10000 |  |  | 
10 | C=CC(=O)N1CC2(CCN2C(=O)N(C)[C@H](C(=O)N[C@H]2Cc3nc(cs3)-c3ccc4c(c3)c(c(-c3cccnc3[C@H](C)OC)n4CC)CC(C)(C)COC(=O)[C@@H]3CCCN(N3)C2=O)C(C)C)C1 (atropisomer, axis not shown) [Example A407] | < 5000 | 100 to 1000 | < 10 | 10 to 100 | 10 to 100 |  |  | 
11 | C=CC(=O)N1CC[C@H](C(=O)N(C)[C@H](C(=O)N[C@H]2CC3=NN=C(O3)c3ccc4c(c3)c(c(-c3cccnc3[C@H](C)OC)n4CC)CC(C)(C)COC(=O)[C@@H]3CCCN(N3)C2=O)C(C)C)C1 (atropisomer, axis not shown) [Example A447] | < 5000 | > 10000 | 100 to 1000 | > 10000 | 1000 to 10000 |  |  | 
12 | C=CC(=O)Nc1ncc(C(=O)N(C)[C@H](C(=O)N[C@H]2Cc3cccc(c3)-c3ccc4c(c3)c(c(-c3cccnc3[C@H](C)OC)n4CC)CC(C)(C)COC(=O)[C@@H]3CCCN(N3)C2=O)C(C)C)n1C (atropisomer, axis not shown) [Example A474] | < 5000 | > 10000 | < 10 | 1000 to 10000 | 1000 to 10000 |  |  | 
13 | C=CC(=O)N1CC[C@H](C(=O)N2CC[C@H](C)[C@H]2C(=O)N[C@H]2Cc3cccc(c3)-c3ccc4c(c3)c(c(-c3cccnc3[C@H](C)OC)n4CC)CC(C)(C)COC(=O)[C@@H]3CCCN(N3)C2=O)C1 (atropisomer, axis not shown) [Example A494] | < 5000 | > 10000 | 100 to 1000 | 1000 to 10000 | 1000 to 10000 |  |  | 
14 | C=CC(=O)N1CC[C@H](C(=O)N2CCCCC[C@H]2C(=O)N[C@H]2Cc3cccc(c3)-c3ccc4c(c3)c(c(-c3cccnc3[C@H](C)OC)n4CC)CC(C)(C)COC(=O)[C@@H]3CCCN(N3)C2=O)C1 (atropisomer, axis not shown) [Example A496] | < 5000 | > 10000 | 1000 to 10000 | 1000 to 10000 | 1000 to 10000 |  |  | 
15 | CCn1c(-c2cccnc2[C@H](C)OC)c2c3cc(ccc31)-c1cccc(c1)C[C@H](NC(=O)[C@H](C(C)C)N1CC[C@]3(CCN(C(=O)C#CC(C)(C)N(C)C)C3)C1=O)C(=O)N1CCC[C@H](N1)C(=O)OCC(C)(C)C2 (atropisomer, axis not shown) [Example A534, (2S)-2-((S)-7-(4-(dimethylamino)-4-methylpent-2-ynoyl)-1-oxo-2,7-diazaspiro[4.4]nonan-2-yl)-N-((6^3S,4S)-1^1-ethyl-1^2-(2-((S)-1-methoxyethyl)pyridin-3-yl)-10,10-dimethyl-5,7-dioxo-6^1,6^2,6^3,6^4,6^5,6^6-hexahydro-1^1H-8-oxa-1(5,3)-indola-6(1,3)-pyridazina-2(1,3)-benzenacycloundecaphane-4-yl)-3-methylbutanamide] | < 5000 | 1000 to 10000 | < 10 | 1000 to 10000 | 1000 to 10000 |  |  | 
16 | C=CC(=O)N1CC[C@H]2[C@@H]1CN2C(=O)N(C)[C@H](C(=O)N[C@H]1Cc2nc(cs2)-c2ccc3c(c2)c(c(-c2cccnc2[C@H](C)OC)n3CC)CC(C)(C)COC(=O)[C@@H]2CCCN(N2)C1=O)C(C)C (atropisomer, axis not shown) [Example A547] | < 5000 | 1000 to 10000 | 100 to 1000 | 1000 to 10000 | 100 to 1000 |  |  | 
17 | CCn1c(-c2cccnc2[C@H](C)OC)c2c3cc(ccc31)-c1cccc(c1)C[C@H](NC(=O)[C@H](C(C)C)N1CC[C@@]3(CCN(C(=O)C#C[C@@H]4COCCN4C)C3)C1=O)C(=O)N1CCC[C@H](N1)C(=O)OCC(C)(C)C2 (atropisomer, axis not shown) [Example A549] | < 5000 | > 10000 |  |  |  | 10 to 100 | 1000 to 10000 | 1000 to 10000
18 | CCn1c(-c2cccnc2[C@H](C)OC)c2c3cc(ccc31)-c1cccc(c1)C[C@H](NC(=O)[C@H](C(C)C)N1CC[C@]3(CCN(C(=O)C#C[C@@]4(N(C)C)CCOC4)C3)C1=O)C(=O)N1CCC[C@H](N1)C(=O)OCC(C)(C)C2 (atropisomer, axis not shown) [Example A560] | < 5000 | 1000 to 10000 | 10 to 100 | 1000 to 10000 | 1000 to 10000 |  |  | 
19 | C=CC(=O)N1C[C@@H]2CN(C(=O)N(C)[C@H](C(=O)N[C@H]3Cc4nc(cs4)-c4ccc5c(c4)c(c(-c4cccnc4[C@H](C)OC)n5CC)CC(C)(C)COC(=O)[C@@H]4CCCN(N4)C3=O)C(C)C)[C@@H]2C1 (atropisomer, axis not shown) [Example A561] | < 5000 | 1000 to 10000 | 100 to 1000 | 1000 to 10000 | 1000 to 10000 |  |  | 
20 | C=CC(=O)N1CCO[C@H]2CN(C(=O)N(C)[C@H](C(=O)N[C@H]3CC4=NN=C(O4)c4ccc5c(c4)c(c(-c4cccnc4[C@H](C)OC)n5CC(F)(F)F)CC(C)(C)COC(=O)[C@@H]4CCCN(N4)C3=O)C(C)C)C[C@H]21 (atropisomer, axis not shown) [Example A576] | < 5000 | > 10000 | 100 to 1000 | > 10000 | 1000 to 10000 |  |  | 
